Counter-ions that a name gives are not always drawn. Like-named read-outs stand apart in the source and are kept apart here.
Key:
[1] = tested on: LPS-induced human primary monocytes; assay: Release of cytokines (IL-6, TNF-α, IL-8, IL-1β) and PGE2 from LPS-induced human primary monocytes (ELISA, normalized to LPS = 100%); assay type: cell-based; conditions: for effect on secretion of all proinflammatory cytokines tested (IL-6, IL-1β, TNF-α, IL-8): 0.1 μM-250 μM; for inhibition at 50 µM / inhibition at 250 µM: Homo sapiens, Monocyte
[2] = tested on: rodents; conditions: cited from earlier work
[3] = tested on: human primary monocytes; assay: Viability of human primary monocytes (Alamar Blue); conditions: 50 μM and 250 μM; for viability of human primary monocytes: then 24 h LPS
Description: Viability of human primary monocytes—viable human primary monocyte cells were counted using Alamar Blue. Treatment with toxic amounts of sodium fluoride (NaF at 250 μg/ml) was used as control.
To this end, human primary monocytes were incubated for 24 hours and 48 hours with (R,S)-ketamine, (2R,6R)-hydroxynorketamine, (R,S)-norketamine, and (R,S)-dehydronorketamine at concentrations of 50 μM and 250 μM. LPS alone and treatment with dexamethasone (1 μM) were used as controls. Monocyte cells' viability was measured using Alamar blue to evaluate toxicity of the agents.

[4] = tested on: radical prostatectomy patients; conditions: cited from earlier work
[5] = tested on: rats; conditions: cited from earlier work
[6] = tested on: COVID-19 patients; conditions: cited from earlier work
[7] = 30 min pre-treatment, then 24 h LPS
[8] = 50 μM and 250 μM, 24 h pre-treatment, then 24 h LPS
[9] = 50 μM and 250 μM, 48 h pre-treatment, then 24 h LPS
[10] = 50 μM, 48 h pre-treatment, then 24 h LPS
[11] = 250 μM, 30 min pre-treatment, then 24 h LPS, read-out: inhibition of LPS-induced IL-1β release
[12] = 250 μM, 30 min pre-treatment, then 24 h LPS, read-out: inhibition of LPS-induced IL-6 release
[13] = 250 μM, 30 min pre-treatment, then 24 h LPS, read-out: inhibition of LPS-induced IL-8 release
[14] = 250 μM, 30 min pre-treatment, then 24 h LPS, read-out: inhibition of LPS-induced TNF-α release
[15] = 250 μM, 24 h pre-treatment, then 24 h LPS, read-out: inhibition of LPS-induced IL-6 release
[16] = 250 μM, 24 h pre-treatment, then 24 h LPS, read-out: inhibition of LPS-induced TNF-α release
[17] = 250 μM, 48 h pre-treatment, then 24 h LPS, read-out: inhibition of LPS-induced TNF-α release
[18] = 250 μM, 30 min pre-treatment, then 24 h LPS
[19] = 250 μM, 24 h pre-treatment, then 24 h LPS

Compound	effect on secretion of all proinflammatory cytokines tested (IL-6, IL-1β, TNF-α, IL-8) [1, 7]	effect on IL-6 secretion [1, 8]	effect on LPS-induced IL-8 release [1, 8]	effect on PGE2 secretion [1, 8]	effect on TNF-α secretion [1, 8]	effect on IL-6 secretion [1, 9]	effect on PGE2 secretion [1, 9]	effect on TNF-α secretion [1, 9]	anesthetic effects [5]	further results
N[C@@]1(c2ccccc2Cl)CCC[C@@H](O)C1=O [(2R,6R)-2-amino-2-(2-chlorophenyl)-6-hydroxycyclohexanone]	cytokines release decrease in a dose dependent manner	inhibition in the secretion	not affected	inhibition in the secretion	inhibition in the secretion	inhibition of TNF-α, IL-6, and PGE2 secretion	inhibition of TNF-α, IL-6, and PGE2 secretion	inhibition of TNF-α, IL-6, and PGE2 secretion		inhibition at 50 µM [1, 10]: ~20%; inhibition at 250 µM [1, 11]: ~20%; inhibition at 250 µM [1, 12]: ~20%; inhibition at 250 µM [1, 13]: ~20%; inhibition at 250 µM [1, 14]: ~30%; inhibition at 250 µM [1, 15]: ~35%; inhibition at 250 µM [1, 16]: ~40%; inhibition at 250 µM [1, 17]: ~55%; antidepressant-relevant behavioral responses [2]: exert antidepressant-relevant behavioral responses; safety to monocytes (viability), overall conclusion ([3]; 24 h and 48 h pre-treatment): monocytes safety
C[C@@H]1C[C@H]2[C@@H]3CCC4=CC(=O)C=C[C@]4(C)[C@@]3(F)[C@@H](O)C[C@]2(C)[C@@]1(O)C(=O)CO [Dexamethasone, dexamethasone]										reduction of cytokines release ([1]; 10 μM, control, 30 min pre-treatment study (not shown)): about 60%
CN[C@]1(c2ccccc2Cl)CCCCC1=O [S-ketamine, (S)-ketamine]										surgery-associated increase in IL-6 [4]: attenuates; surgery-associated increase in TNF [4]: attenuates
NC1(c2ccccc2Cl)CCC=CC1=O (racemic) [(R,S)-dehydronorketamine]		dramatically reduced all cytokines release	dramatically reduced all cytokines release	dramatically reduced	dramatically reduced all cytokines release	dramatically reduced all cytokines release	dramatically reduced	dramatically reduced all cytokines release		effect on LPS-mediated IL-8 release [1, 9]: dramatically reduced all cytokines release; viability of human primary monocytes ([3]; 24 h pre-treatment): highly toxic to the cells; viability of human primary monocytes ([3]; 48 h pre-treatment): induced a massive cells' mortality
NC1(c2ccccc2Cl)CCCCC1=O (racemic) [(R,S)-norketamine]		remained without any significant change	remained without any significant change	promoted the secretion of PGE2	inhibited the secretion of TNF-α only at the higher dose tested	inhibited the secretion of TNF-α and IL-6	promoted the secretion of the proinflammatory agent PGE2 at 250 μM	inhibited the secretion of TNF-α and IL-6	produced anesthetic actions	
CNC1(c2ccccc2Cl)CCCCC1=O (racemic) [(R,S)-ketamine hydrochloride]	potent inhibitory effect	inhibition in the secretion	without affecting IL-8	inhibition in the secretion	inhibition in the secretion	inhibition of TNF-α, IL-6, and PGE2 secretion	inhibition of TNF-α, IL-6, and PGE2 secretion	inhibition of TNF-α, IL-6, and PGE2 secretion	produced anesthetic actions	inhibition at 50 µM [1, 10]: ~40%; inhibition at 250 µM [1, 11]: 30 to 60%; inhibition at 250 µM [1, 12]: 30 to 60%; inhibition at 250 µM [1, 13]: 30 to 60%; inhibition at 250 µM [1, 14]: 30 to 60%; inhibition at 250 µM [1, 15]: ~30%; inhibition at 250 µM [1, 16]: ~70%; inhibition at 250 µM [1, 17]: ~75%
(2R,6R;2S,6S)-HNK									no anesthetic or hyperlocomotor effects	
Cc1ccc(-c2cc(C(F)(F)F)nn2-c2ccc(S(N)(=O)=O)cc2)cc1 [Celebrex]										PGE2 levels [6]: significantly reduced
N[C@]1(c2ccccc2Cl)CCC[C@H](O)C1=O [(2S,6S)-hydroxynorketamine hydrochloride, (2S,65)-2-amino-2-(2-chlorophenyl)-6-hydroxycyclohexanone]	cytokines release decrease in a dose dependent manner		not affected							inhibition of LPS-induced TNF-α release [1, 10]: approx. 30%; inhibition of LPS-induced IL-1β release [1, 18]: ~20%; inhibition of LPS-induced IL-6 release [1, 18]: ~20%; inhibition of LPS-induced IL-8 release [1, 18]: ~20%; inhibition of LPS-induced TNF-α release [1, 18]: approx. 30%; inhibition of LPS-induced IL-6 release [1, 19]: about 10%; inhibition of LPS-induced TNF-α release [1, 19]: approx. 30%; inhibition of LPS-induced TNF-α release ([1]; 250 μM, 48 h pre-treatment, then 24 h LPS): approx. 40%; antidepressant-relevant behavioral responses [2]: exert antidepressant-relevant behavioral responses

Reference: patent publication US20230181491A1, “COMPOSITIONS AND METHODS FOR THE TREATMENT AND MANAGEMENT OF INFLAMMATION USING HYDROXYNORKETAMINE” (SPIRIFY PHARMA INC., priority 2020, published 2023)
